According to patent US20090030083A1, “Use of n-(2-aryl-propionyl)-sulfonamides for the treatment of spinal cord injury” (Dompe' pha.r.ma S.p.A, priority 2004, published 2009):

How the values were obtained:
CD68 positive cells = experiment: leukocyte infiltration after SCI (CD68 positive cells); type: in vivo, rat; settings: for Number of infiltrated leukocytes (mean ± SE; n = 8): 15 mg/kg i.v. then s.c.
Description: (§1) Adult Sprague-Dawley rats (females) weighing 240-260 g were maintained in the animal facilities under standard housing conditions (22±2° C., 65% humidity, artificial light from 06.00-20.00 h). A standard dry diet and water were available ad libitum. SCI in the rat was performed as previously reported (Gorio A. et al. Proc. Natl. Acad. Sci. USA 99, 9450-9455, 2002). The lesioning apparatus is computer controlled and free of the influence of gravity force. The force applied was 1N per 1 second. Leukocyte infiltration was quantitatively estimated by CD68 positive cells 1 and 7 days after SCI. […] The following days the animals were treated s.c. at 8 am and 5 pm until the 7th day after SCI. Animals were treated with compound of formula (III) (8 mg/kg) by i.v. injection within 30 minutes after SCI, then s.c. 24 hours after SCI. The following days the animals were treated s.c. every 36 hours until the 7th day after SCI.

oligodendrocytes = experiment: apoptosis of oligodendrocytes after SCI (TUNEL); type: in vivo, rat; settings: 28 days after SCI; for inhibition of oligodendrocyte apoptosis: vs saline; for Number of oligodendrocyte apoptic nuclei (mean ± SE; n = 12): gracilis and cuneatus fascicle, saline 14.9 ± 2
Description: Adult Sprague-Dawley rats (females) weighing 240-260 g were maintained in the animal facilities under standard housing conditions (22±2° C., 65% humidity, artificial light from 06.00-20.00 h). A standard dry diet and water were available ad libitum. SCI in the rat was performed as previously reported (Gorio A. et al. Proc. Natl. Acad. Sci. USA 99, 9450-9455, 2002). The lesioning apparatus is computer controlled and free of the influence of gravity force. The force applied was 1N per 1 second. Apoptosis of oligodendrocytes was determined at the level of the gracilis and cuneatus fascicle (3 mm rostrally from the site of contusion injury) 28 days after SCI using the terminal deoxynucleotidyltransferase-mediated dUTP and labeling (TUNEL) methodology. […] The following days the animals were treated s.c. at 8 am and 5 pm until the 7th day after SCI. Animals were treated with compound of formula (III) (8 mg/kg) by i.v. injection within 30 minutes after SCI, then s.c. 24 hours after SCI. The following days the animals were treated s.c. every 36 hours until the 7th day after SCI.

SCI in the rat [1] = experiment: extension of post-traumatic cavity / spared tissue at lesion site (histology); type: in vivo; settings: 28 days after SCI; for Percentage of spared tissue at lesion site (mean ± SE; n = 12), Lesion Epicenter: saline 39.8 ± 3.9; for Percentage of spared tissue at lesion site (mean ± SE; n = 12), Cavity Volume: saline 46.6 ± 3.1
Description: as §1, with “Extension of post-traumatic cavity” for “Leukocyte infiltration”, “performed” for “quantitatively estimated”, “classical histological techniques 28” for “CD68 positive cells 1 and 7”

SCI in the rat [2] = experiment: free locomotion test (BBB scale) after SCI, i.v./s.c. injection; type: in vivo; settings: i.v. within 30 minutes after SCI then s.c. until 7th day; (II) 15 mg/kg, (III) 8 mg/kg; FIG. 1 and 2
Description: Adult Sprague-Dawley rats (females) weighing 240-260 g were maintained in the animal facilities under standard housing conditions (22±2° C., 65% humidity, artificial light from 06.00-20.00 h). A standard dry diet and water were available ad libitum. […] The force applied was 1N per 1 second. Recovery from hind limb disability was evaluated by means of “free locomotion test” performed 24 hours, 4, 7, 11, 15, 19 and 27 days after SCI. The “free locomotion test” allows the detection of feet positioning, and joint rotation. The quality of functional recovery is quantitatively expressed according to the “BBB scale” developed at the Ohio University. Such a test allows the quantification of rat hind limb free locomotion deficits by observing their movements in an open space free of obstacles: 0—Lesioned rat cannot move either limbs 1—Small movement of a joint (heap or knee) From 2 to 6—Movement in progressive extension of the 3 joints 7—Good movement of the 3 joints 8—Animals walk without plantar support of the weight From 9 to 11—Animals walk from occasionally to progressively frequent with plantar support of the weight. 12—Occasional coordination of hind limbs and forelimbs during walk From 13 to 14—Progressive coordination with the forelimbs. 15—Consistent plantar support of weight and coordination during walk; occasional movement of fingers during advancement. […]

SMILES	Number of infiltrated leukocytes (mean ± SE; n = 8) (CD68 positive cells; Epicenter, 1 day from SCI, saline 125 ± 36)	Number of infiltrated leukocytes (mean ± SE; n = 8) (CD68 positive cells; Epicenter, 7 days from SCI, saline 235 ± 54)	Number of infiltrated leukocytes (mean ± SE; n = 8) (CD68 positive cells; Periphery, 1 day from SCI, saline 56 ± 13)	Number of infiltrated leukocytes (mean ± SE; n = 8) (CD68 positive cells; Periphery, 7 days from SCI, saline 99 ± 32)	inhibition of leukocyte infiltration (CD68 positive cells; at 24 hours and 7 days after SCI, vs saline)	inhibition of oligodendrocyte apoptosis (oligodendrocytes)	Number of oligodendrocyte apoptic nuclei (mean ± SE; n = 12) (oligodendrocytes)	tissue damage at the site of the lesion and extension of post-traumatic cavity, in words (SCI in the rat [1])	Percentage of spared tissue at lesion site (mean ± SE; n = 12), Lesion Epicenter (SCI in the rat [1])	Percentage of spared tissue at lesion site (mean ± SE; n = 12), Cavity Volume (SCI in the rat [1])	functional hind limb recovery (motor score, BBB scale), in words (SCI in the rat [2])
CC(C)Cc1ccc([C@@H](C)C(=O)NS(C)(=O)=O)cc1 [compound of formula (II), (R)-ibuprofen methanesulfonamide]	24 ± 3	19 ± 3	3 ± 1	4 ± 2	80%	85%	2.1 ± 1.2	significantly reduced tissue damage	48.9 ± 3.0 %	58.2 ± 2.9 %	
C[C@@H](C(=O)NS(C)(=O)=O)c1ccc(OS(=O)(=O)C(F)(F)F)cc1 [compound of formula (III), R-2-[(4′-trifluoromethanesulphonyloxy)phenyl]-N-methanesulfonyl propionamide]						65%	5.2 ± 3.8	significantly reduced tissue damage	49.7 ± 4.2 %	60.4 ± 4.3 %	significantly promoted functional hind limb recovery
